We go through 2 compounds from article PMC4838876, “Multivalent display of minimal Clostridium difficile glycan epitopes mimics antigenic properties of larger glycans” (Nature Communications, 2016).

This experiment has as its system mAb 2C5. In words: Interaction Map (IM) analysis based on SPR traces. Type of experiment: binding, mouse. The source says: Pentasaccharide 1 was bound with about 100-fold lower KD values than the minimal glycan epitope 3. This stronger binding may have been due to avidity (re-binding) effects, as 3 is contained twice in 1, or by higher affinity. To address this question, we compared the binding properties by IM analysis based on SPR traces. […] Both antigens interacted with mAb 2C5 in a 1:1-like manner, indicated by one dominant peak in the IM plots. Therefore, stronger antibody binding to 1 was due to increased affinity, not avidity, which would be characterized by differences in off-rates and additional peaks.
Figure 7 IM and thermodynamic analysis of glycan–mAb interactions and conformation of 1. (a) IM analysis. The heat maps represent on- and off-rates of mAb 2C5 to 1 (upper) and 3 (lower). (b) Thermograms acquired using 7 μM of mAb 2C5 and titrating 250 μM of 1 (left) or 3 mM of 3 (right) at 25 °C. Thermodynamic parameters were inferred by nonlinear least-square fits of the data points. (c) Summary of thermodynamic parameters for 1 and 3 interacting with mAbs 2C5 and 10A1. Bars represent mean±s.e.m. of two independent measurements. See Supplementary Fig. 6 for details. (d) One-dimensional proton NMR spectrum, and 2D zTOCSY and NOE spectroscopy (NOESY) NMR spectra of 1 showing the coupled protons to the anomeric protons of the five residues with numbering according to the structure shown in e. […]

Consider `C[C@@H]1O[C@@H](O[C@@H]2[C@@H](O)[C@H](O[C@H]3[C@H](O[C@@H]4O[C@@H](C)[C@H](O)[C@@H](O)[C@H]4O)[C@@H](O)[C@@H](O[C@H]4[C@@H](OCCCCCN)O[C@H](CO)[C@@H](O)[C@@H]4O)O[C@@H]3CO)O[C@H](CO)[C@H]2O)[C@H](O)[C@H](O)[C@H]1O` [Compound 1], for which the on-rate is given as 126,000 M^−1 s^−1. Then `C[C@@H]1O[C@@H](O[C@@H]2[C@@H](O)[C@H](OCCCCCN)O[C@H](CO)[C@H]2O)[C@H](O)[C@H](O)[C@H]1O` [Compound 3, Rha-(1→3)-Glc], with 250 M⁻¹ s⁻¹.
